According to patent US5545672A, “Treatment of insulin resistance and type 2 diabetes mellitus with a thiol protease inhibitor” (The University of Texas System, priority 1994, dated 1996):
“Also recorded” adds a separate entry of the source. Like-named read-outs stand apart in the source and are kept apart here.

How the values were obtained:
3T3-L1 adipocytes = experiment: Insulin resistance in adipocytes: 14C-glucose incorporation into cellular lipid (lipogenesis); type: cell-based; conditions: for insulin resistance (insulin stimulation of lipogenesis after preincubation): 3T3-L1 adipocytes, 9 h preincubation with insulin 1.7 μM alone or with E-64 100 μM; for cpm INCORPORATED: 9 h pretreatment (insulin 1.7 μM alone, or insulin 1.7 μM + E-64 100 μM); for FOLD STIMULATION: pretreatment as above
Procedure: Intact monolayers of 3T3-L1 adipocytes were preincubated in the absence of insulin (control) or for nine hours in the presence of 1.7 μM insulin to induce cellular insulin resistance. […] Following preincubation, the treated monolayers were extensively washed to remove any insulin present from the preincubation period. The monolayers were then incubated with insulin, 0, 0.05, or 10 nM for 30 minutes, followed by the addition of 14C-glucose at a final concentration of 25 mM. Incorporation of the radiolabeled glucose proceeded for 30 minutes, after which the cells were washed, lysed, and the cellular lipids extracted into chloroform:methanol (2:1). The amount of radiolabel incorporated into the cellular lipid was then quantified by liquid scintillation counting, and the results are shown in Table 2. This assay procedure is described in Tarlow et al., J. Cell Biol., 73:332-353, 1977.

[1] = test system: insulin receptor β subunit; experiment: Insulin-induced proteolysis of insulin receptor β subunit, quantitative immunoblot of membranes and cytosol; type: cell-based; conditions: 3T3-C2 fibroblasts, 4 h; for β' FRAGMENT % IN CYTOSOL: normalized to maximum β' after eight hours of insulin
Procedure: Cell monolayers were scraped into 10 mM triethanolamine, 10 mM acetic acid, 1 mM EDTA, pH 7.4. The cells were disrupted in a Dounce homogenizer and subjected to centrifugation at 265,000×g, 70 min. at 4° C. The pellet was retained as cellular membranes and the supernatant was collected as the cytosolic fraction.
The cellular membranes were detergent-extracted and the extracts were subjected to SDS polyacrylamide gel electrophoresis on a 7.5% gel to resolve the intact β subunit (approximate mass 92 kDa).
Transfer of the cellular proteins from the 7.5% acrylamide gel to nitrocellulose was conducted at 18 V for 18 h, and the intact β subunit and β' fragment were detected as previously described (Knutson and Buck, Arch. Biochem. Biophys., 285:197-204, 1991). Briefly, following transfer, the nitrocellulose was blocked by incubation for 1 h with blot buffer (50 mM Tris, 0.2M NaCl, pH 8) containing 4% non-fat dry milk. Following blocking, the nitrocellulose was incubated with an anti-peptide antibody which specifically recognizes the carboxy-terminal 16 amino acid residues of the insulin receptor β subunit. This domain is contained in both the intact β subunit and the β' fragment. This antibody has been fully characterized and affinity purified (Knutson and Buck, ibid.). The antibody concentration was 5 μg/ml in blot buffer containing 1% non-fat dry milk, and the incubation was allowed to proceed for 2 h at room temperature. The unbound antibody was then removed from the nitrocellulose by 3 washes with blot buffer containing 1% non-fat dry milk and 0.05% Tween-20. The nitrocellulose was then incubated with ^125 I-protein A, 0.1 μCi/ml, with the blot buffer containing 1% non-fat dry milk, for 1 h at room temperature. Following a final 5 washes of the nitrocellulose with blot buffer-1% dry milk-0.05% Tween-20, the nitrocellulose was exposed to X-ray film. Autoradiographic intensities were quantitated by densitometric scanning.
Cytosolic β' fragment (approximate mass 61 kDa) was isolated by subjecting the […] to high speed centrifugation, removing the supernatant, subjecting the supernatant to SDS polyacrylamide gel electrophoresis on a 7.5% gel, transferring the cytosolic proteins to nitrocellulose, and detecting the cytosolic β' fragment by quantitative immunoblot (Western blot) analysis as described above. The β' fragment data was normalized to the maximum level of β' fragment detected after eight hours of insulin treatment. The above-described procedure is as described in Knutson, V. P., J. Biol. Chem., 266:15656-15662 (1991).

lean Zucker rats = conditions: 2.5 mg/kg I.P. every 24 h, data not shown
From the text: (§1) The injection protocol was initiated when the rats were 14 weeks old, a time when their insulin resistant state was fully manifest. Blood was drawn from the animals at intervals before the beginning of the injection schedule, and at at least one week intervals after initiating the injections. On the first day of the protocol, the fatty rats weighed an average of 416 grams.

Zucker fatty rats = conditions: for SERUM TG: Zucker fatty rats
From the text: as §1

[2] = test system: insulin receptor β subunit; conditions: cultured cells chronically treated with high insulin; Knutson, J. Biol. Chem. 266, 1991; cited from earlier work
[3] = agent alone (insulin 1.7 μM; leupeptin 10 μg/ml; E-64 100 μM), control 100 ± 13

| Compound | insulin resistance (insulin stimulation of lipogenesis after preincubation) (3T3-L1 adipocytes) | cpm INCORPORATED (3T3-L1 adipocytes; then insulin 0 nM) [cpm] | cpm INCORPORATED (3T3-L1 adipocytes; then insulin 0.05 nM) [cpm] | cpm INCORPORATED (3T3-L1 adipocytes; then insulin 10 nM) [cpm] | FOLD STIMULATION (3T3-L1 adipocytes; insulin 0 nM (baseline)) [fold] | FOLD STIMULATION (3T3-L1 adipocytes; insulin 0.05 nM) [fold] | FOLD STIMULATION (3T3-L1 adipocytes; insulin 10 nM) [fold] | β SUBUNIT % IN MEMBRANES [1, 3] [%] | β' FRAGMENT % IN CYTOSOL ([1]; agent alone, control 8 ± 5) | β' FRAGMENT % IN CYTOSOL ([1]; inhibitor + insulin 1.7 μM) | further results |
| --- | --- | --- | --- | --- | --- | --- | --- | --- | --- | --- | --- |
| insulin | no subsequent stimulation of lipogenesis | 1600 | 1900 | 1800 | 1 | 1.2 | 1.1 | 80 ± 7 | 62 ± 6% | – | β SUBUNIT % IN MEMBRANES ([1]; agent alone (insulin 1.7 μM; leupeptin 10 μg/ml; E-64 100 μM), control 100 ± 13, listed as insulin): decreased; β' FRAGMENT % IN CYTOSOL ([1]; agent alone, control 8 ± 5, listed as insulin): increased |
| CC(C)C[C@H](NC(=O)[C@H]1O[C@@H]1C(=O)O)C(=O)NCCCCN=C(N)N [E-64, L-transepoxysuccinyl-leucylamido (4-guanidino) butane] | ameliorated | 600 | 1100 | 3100 | 1 | 1.8 | 5.2 | 143 ± 7 | Trace | Not detectable; also recorded: non-detectable | effect on triglyceride levels in lean rats (lean Zucker rats): no effect; effect on the increase in triglyceride levels found in control Zucker fatty rats (Zucker fatty rats; 2.5 mg/kg I.P. every 24 h): prevented the increase; effect on insulin resistant state in Zucker fatty rats (Zucker fatty rats; 2.5 mg/kg I.P. every 24 h, 90 days): reduced but did not reverse; SERUM TG (Zucker fatty rats; 2.5 mg/kg I.P. every 24 h, day 28, n = 3): 798 ± 269 mg/dL; SERUM TG (Zucker fatty rats; 2.5 mg/kg I.P. every 24 h, day 56, n = 3): 1045 ± 443 mg/dL; SERUM TG (Zucker fatty rats; 2.5 mg/kg I.P. every 24 h, day 89, n = 3): 1093 ± 301 mg/dL; SERUM TG (Zucker fatty rats; day -4 of protocol (before injections), n = 3): 1009 ± 157 mg/dL; production of the insulin receptor fragment β' [2]: inhibited |
| CC(=O)N[C@@H](CC(C)C)C(=O)N[C@@H](CC(C)C)C(=O)N[C@H](C=O)CCCNC(=N)N [Leupeptin, leupeptin] | – | – | – | – | – | – | – | 97 ± 7 | Trace | Not detectable | β SUBUNIT % IN MEMBRANES ([1]; inhibitor + insulin 1.7 μM (leupeptin 10 μg/ml; E-64 100 μM)): 120 ± 17%; β SUBUNIT % IN MEMBRANES ([1]; inhibitor + insulin 1.7 μM (leupeptin 10 μg/ml; E-64 100 μM), listed as leupeptin): prevented insulin-induced loss; β' FRAGMENT % IN CYTOSOL ([1]; inhibitor + insulin 1.7 μM, listed as leupeptin): prevented generation |
